Test results published in patent US9067881B2, “4-tolyl-ethynyl-octahydro-indole-1-ester derivatives” (NOVARTIS AG, priority 2011, dated 2015).
Converted amounts (≈) assume the structure as drawn.

Key:
human mGluR5 = biological target: T1, human mGluR5 (Homo sapiens, UniProt P41594); assay: In-vitro activity of mGluR5 antagonists (inhibition of agonist induced elevation of intracellular Ca2+ or inositol phosphate turnover at recombinant human mGluR5); assay type: cell-based; conditions: recombinant human mGluR5, antagonism
T1 construct: expressed in transfected cells
T1 sequence (P41594 21-1180 isoform P41594-2 limits assumed): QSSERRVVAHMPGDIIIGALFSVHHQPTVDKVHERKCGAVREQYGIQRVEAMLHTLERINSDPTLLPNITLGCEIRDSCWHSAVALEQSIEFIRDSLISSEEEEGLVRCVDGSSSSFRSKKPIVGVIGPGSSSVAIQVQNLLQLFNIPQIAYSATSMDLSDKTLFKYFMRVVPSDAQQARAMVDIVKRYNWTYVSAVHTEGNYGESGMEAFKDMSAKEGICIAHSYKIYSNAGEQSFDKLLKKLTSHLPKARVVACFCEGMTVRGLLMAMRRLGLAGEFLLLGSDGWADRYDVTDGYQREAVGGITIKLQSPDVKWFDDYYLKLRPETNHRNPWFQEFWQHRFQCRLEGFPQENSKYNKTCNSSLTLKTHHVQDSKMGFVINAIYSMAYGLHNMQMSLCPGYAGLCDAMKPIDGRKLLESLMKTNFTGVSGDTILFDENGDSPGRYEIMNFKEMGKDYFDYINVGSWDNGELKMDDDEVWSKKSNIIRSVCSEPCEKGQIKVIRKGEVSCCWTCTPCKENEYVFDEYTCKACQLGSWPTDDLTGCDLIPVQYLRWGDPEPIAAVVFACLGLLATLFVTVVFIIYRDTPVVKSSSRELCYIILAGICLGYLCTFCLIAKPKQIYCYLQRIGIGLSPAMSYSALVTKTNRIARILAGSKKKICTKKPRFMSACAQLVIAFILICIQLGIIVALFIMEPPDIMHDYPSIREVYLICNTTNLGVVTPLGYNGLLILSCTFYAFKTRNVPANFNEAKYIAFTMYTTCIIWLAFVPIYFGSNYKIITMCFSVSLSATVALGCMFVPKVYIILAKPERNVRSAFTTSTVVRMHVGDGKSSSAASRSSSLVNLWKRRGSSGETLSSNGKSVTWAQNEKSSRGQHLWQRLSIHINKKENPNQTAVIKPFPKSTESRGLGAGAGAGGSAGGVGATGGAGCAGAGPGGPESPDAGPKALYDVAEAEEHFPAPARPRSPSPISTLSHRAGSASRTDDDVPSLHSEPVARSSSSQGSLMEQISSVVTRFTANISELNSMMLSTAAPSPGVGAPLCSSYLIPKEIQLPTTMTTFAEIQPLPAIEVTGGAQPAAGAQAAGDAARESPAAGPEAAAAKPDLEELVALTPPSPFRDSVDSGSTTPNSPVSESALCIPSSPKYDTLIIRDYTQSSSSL

[1] = Solubility in Cl free phosphate buffer pH 6.8; assay type: physicochemical; conditions: aqueous buffer; Cl free phosphate buffer (0.067 M) pH 6.8
[2] = In-vitro clearance in rat liver microsomes (metabolic stability, compound depletion)
[3] = microsomes
[4] = microsomes; remark: listed apart in the source
[5] = In-vitro clearance in human liver microsomes (metabolic stability, compound depletion)

| Molecule | IC50 (human mGluR5) [nM] | solubility [1] [µg/mL] | microsomal CLint at 1 μM [2] [µL/min/mg] | CL (human) [3] [µL/min/mg] | CL (rat) [4] [µL/min/mg] | microsomal CLint at 1 μM [5] [µL/min/mg] |
| --- | --- | --- | --- | --- | --- | --- |
| CCOC(=O)N1CC[C@@H]2[C@H]1CCC[C@@]2(O)C#Cc1cccc(C)c1 [Example 2.0] | 42 |  |  |  |  |  |
| (3aR,4S,7aR)-4-((S,R)-2-Amino-3-methyl-butyryloxy)-4-m-tolylethynyl-octahydro-indole-1-carboxylic acid methyl ester [Example 4] |  |  |  | 630 | 478 |  |
| COC(=O)N1CC[C@@H]2[C@H]1CCC[C@]2(C#Cc1cccc(C)c1)OC(=O)CN1CCOCC1 [Example 26, (3aR,4S,7aR)-4-(2-Morpholin-4-yl-acetoxy)-4-m-tolylethynyl-octahydro-indole-1-carboxylic acid methyl ester] |  | 138 (≈ 313 µM) | 533 |  |  | 770 |
| COC(=O)N1CC[C@@H]2[C@H]1CCC[C@]2(C#Cc1cccc(C)c1)OC(=O)CCCN(C)C [Example 3, (3aR,4S,7aR)-4-(4-Dimethylamino-butyryloxy)-4-m-tolylethynyl-octahydro-indole-1-carboxylic acid methyl ester] |  |  | 730 |  |  | 283 |
| COC(=O)N1CC[C@@H]2[C@H]1CCC[C@]2(C#Cc1cccc(C)c1)OC(=O)[C@H](C)N [Example 9, (3aR,4S,7aR)-4-((S)-2-Amino-propionyloxy)-4-m-tolylethynyl-octahydro-indole-1-carboxylic acid methyl ester] |  |  | 355 |  |  | 315 |
| COC(=O)N1CC[C@@H]2[C@H]1CCC[C@]2(C#Cc1cccc(C)c1)OC(=O)[C@@H](N)c1ccccc1 [Example 41, (3aR,4S,7aR)-methyl 4-((S)-2-amino-2-phenylacetoxy)-4-(m-tolylethynyl)octahydro-1H-indole-1-carboxylate] |  | 3 (≈ 6.72 µM) | 579 |  |  | 693 |
| COC(=O)N1CC[C@@H]2[C@H]1CCC[C@]2(C#Cc1cccc(C)c1)OC(=O)CN(C)C [Example 1, (3aR,4S,7aR)-4-(2-Dimethylamino-acetoxy)-4-m-tolylethynyl-octahydro-indole-1-carboxylic acid methyl ester] |  |  | 195 |  |  | 14 |
| CNCC(=O)O[C@@]1(C#Cc2cccc(C)c2)CCC[C@@H]2[C@H]1CCN2C(=O)OC [Example 7, (3aR,4S,7aR)-4-(2-Methylamino-acetoxy)-4-m-tolylethynyl-octahydro-indole-1-carboxylic acid methyl ester] |  |  | 346 |  |  | 433 |
| COC(=O)N1CC[C@@H]2[C@H]1CCC[C@@]2(O)C#Cc1cccc(C)c1 [Example 1.0, 4-hydroxy-4-m-tolylethynyl-octahydro-indole-1-carboxylic acid methyl ester, reference compound] |  | 51 (≈ 163 µM) | 277 |  |  | 113 |
| COC(=O)N1CC[C@@H]2[C@H]1CCC[C@]2(C#Cc1cccc(C)c1)OC(=O)CN [Example 8, (3aR,4S,7aR)-4-(2-Amino-acetoxy)-4-m-tolylethynyl-octahydro-indole-1-carboxylic acid methyl ester] |  | 125 (≈ 337 µM) | 87 |  |  | 187 |
| COC(=O)N1CC[C@@H]2[C@H]1CCC[C@]2(C#Cc1cccc(C)c1)OC(=O)[C@@H](N)CC(C)C [Example 5, (3aR,4S,7aR)-4-((S)-2-Amino-4-methyl-pentanoyloxy)-4-m-tolylethynyl-octahydro-indole-1-carboxylic acid methyl ester] |  |  | 48 |  |  |  |

The next lines start with the values.

| IC50 (human mGluR5) [nM] | solubility [1] [µg/mL] | microsomal CLint at 1 μM [2] [µL/min/mg] | CL (human) [3] [µL/min/mg] | CL (rat) [4] [µL/min/mg] | microsomal CLint at 1 μM [5] [µL/min/mg] | Molecule |
| --- | --- | --- | --- | --- | --- | --- |
|  | 43 (≈ 86.6 µM) | 26 |  |  |  | CCCN(CCC)C(=O)CCC(=O)O[C@@]1(C#Cc2cccc(C)c2)CCC[C@@H]2[C@H]1CCN2C(=O)OC [Example 63, (3aR,4S,7aR)-methyl 4-(4-(dipropylamino)-4-oxobutanoyloxy)-4-(m-tolylethynyl)octahydro-1H-indole-1-carboxylate] |
|  | 9 (≈ 24.4 µM) | 3.4 |  |  |  | CCC(=O)O[C@@]1(C#Cc2cccc(C)c2)CCC[C@@H]2[C@H]1CCN2C(=O)OC [Example 14, (3aR,4S,7aR)-4-Propionyloxy-4-m-tolylethynyl-octahydro-indole-1-carboxylic acid methyl ester] |
|  | < 2 | 478 |  |  |  | COC(=O)N1CC[C@@H]2[C@H]1CCC[C@]2(C#Cc1cccc(C)c1)OC(=O)c1cccnc1 [Example 51, (3aR,4S,7aR)-methyl 4-(nicotinoyloxy)-4-(m-tolylethynyl)octahydro-1H-indole-1-carboxylate] |
|  |  | 302 |  |  | 36 | COC(=O)N1CC[C@@H]2[C@H]1CCC[C@]2(C#Cc1cccc(C)c1)OC(=O)CCN [Example 40, (3aR,4S,7aR)-methyl 4-(3-aminopropanoyloxy)-4-(m-tolylethynyl)octahydro-1H-indole-1-carboxylate] |
|  | < 2 | 5.4 |  |  |  | CCCCCCCCCC(=O)O[C@@]1(C#Cc2cccc(C)c2)CCC[C@@H]2[C@H]1CCN2C(=O)OC [Example 20, (3aR,4S,7aR)-4-Decanoyloxy-4-m-tolylethynyl-octahydro-indole-1-carboxylic acid methyl ester] |
|  | 2 (≈ 4.78 µM) | 167 |  |  |  | COC(=O)N1CC[C@@H]2[C@H]1CCC[C@]2(C#Cc1cccc(C)c1)OC(=O)c1ccccn1 [Example 54, (3aR,4S,7aR)-4-(Pyridine-2-carbonyloxy)-4-m-tolylethynyl-octahydro-indole-1-carboxylic acid methyl ester] |
|  | 439 (≈ 1000 µM) | 730 |  |  | 660 | COC(=O)N1CC[C@@H]2[C@H]1CCC[C@]2(C#Cc1cccc(C)c1)OC(=O)CCN1CCCC1 [Example 29, (3aR,4S,7aR)-4-(3-Pyrrolidin-1-yl-propionyloxy)-4-m-tolylethynyl-octahydro-indole-1-carboxylic acid methyl ester] |
|  | < 2 | 32 |  |  |  | CCCCCCCCCCCC(=O)O[C@@]1(C#Cc2cccc(C)c2)CCC[C@@H]2[C@H]1CCN2C(=O)OC [Example 19, (3aR,4S,7aR)-4-Dodecanoyloxy-4-m-tolylethynyl-octahydro-indole-1-carboxylic acid methyl ester] |
|  | < 2 | 3.4 |  |  |  | CCCCCCC(=O)O[C@@]1(C#Cc2cccc(C)c2)CCC[C@@H]2[C@H]1CCN2C(=O)OC [Example 23, (3aR,4S,7aR)-4-Heptanoyloxy-4-m-tolylethynyl-octahydro-indole-1-carboxylic acid methyl ester] |
|  | 108 (≈ 238 µM) | 533 |  |  | 94 | COC(=O)N1CC[C@@H]2[C@H]1CCC[C@]2(C#Cc1cccc(C)c1)OC(=O)CCN1CCOCC1 [Example 27, (3aR,4S,7aR)-4-(3-Morpholin-4-yl-propionyloxy)-4-m-tolylethynyl-octahydro-indole-1-carboxylic acid methyl ester] |
|  |  | 495 |  |  |  | COC(=O)N1CC[C@@H]2[C@H]1CCC[C@]2(C#Cc1cccc(C)c1)OC(=O)[C@@H](N)CC(C)(C)C [Example 34, (3aR,4S,7aR)-4-((S)-2-Amino-4,4-dimethyl-pentanoyloxy)-4-m-tolylethynyl-octahydro-indole-1-carboxylic acid methyl ester] |
|  | < 2 | 32 |  |  |  | CCCCCCCCC(=O)O[C@@]1(C#Cc2cccc(C)c2)CCC[C@@H]2[C@H]1CCN2C(=O)OC [Example 24, (3aR,4S,7aR)-4-Nonanoyloxy-4-m-tolylethynyl-octahydro-indole-1-carboxylic acid methyl ester] |
|  | < 2 | 26 |  |  | 33 | CCCCCCCCCCCCCC(=O)O[C@@]1(C#Cc2cccc(C)c2)CCC[C@@H]2[C@H]1CCN2C(=O)OC [Example 16, (3aR,4S,7aR)-4-Tetradecanoyloxy-4-m-tolylethynyl-octahydro-indole-1-carboxylic acid methyl ester] |
|  | < 2 | 32 |  |  |  | CCCCCCCCCCCCC(=O)O[C@@]1(C#Cc2cccc(C)c2)CCC[C@@H]2[C@H]1CCN2C(=O)OC [Example 25, (3aR,4S,7aR)-4-m-Tolylethynyl-4-tridecanoyloxy-octahydro-indole-1-carboxylic acid methyl ester] |
|  | < 2 | 385 |  |  |  | COC(=O)N1CC[C@@H]2[C@H]1CCC[C@]2(C#Cc1cccc(C)c1)OC(=O)c1ccncc1 [Example 45, (3aR,4S,7aR)-methyl 4-(isonicotinoyloxy)-4-(m-tolylethynyl)octahydro-1H-indole-1-carboxylate] |
|  |  | 375 |  |  |  | CC[C@H](N)C(=O)O[C@@]1(C#Cc2cccc(C)c2)CCC[C@@H]2[C@H]1CCN2C(=O)OC [Example 30, (3aR,4S,7aR)-4-((S)-2-Amino-butyryloxy)-4-m-tolylethynyl-octahydro-indole-1-carboxylic acid methyl ester] |
